Biological target: T1, Glu-plg (Homo sapiens, UniProt P00747)
T1 construct: 0.1 mM VLK-pNA, 50 nM Glu-plg and 50 U/ml u-PA
Experiment: Plasminogen (plg) activation enhancing activity by urokinase catalysis, VLK-pNA chromogenic assay (Example 30, Table 24)
Assay type: biochemical
Settings: for Maximum enhancing activity: Concentration by mole / Maximum enhancing activity: Concentration by weight: concentration at which enhancement of plasminogen activation reaches the maximum; for 10-Fold enhancing activity: Concentration by mole / 10-Fold enhancing activity: Concentration by weight: concentration giving 10-fold enhancement of plasminogen activation vs control without SMTP compound (=1); for 10-Fold enhancing activity: Concentration by mole / 10-Fold enhancing activity: Concentration by weight / plasminogen activation enhancing activity compared to orniplabin: 0.1 mM VLK-pNA, 50 nM Glu-plg, 50 U/ml u-PA, 37° C.; for Maximum enhancing activity: Multiplication factor: fold enhancement of plasminogen activation at maximum, control without SMTP compound = 1
Protocol: For the various triprenyl phenol compounds obtained as described above, the performance was evaluated with regard to the thrombolytic activity as the activity of promoting the plasminogen (plg) activation by urokinase catalysis.
The property of plasmin of cutting the peptide bond of a synthetic chromogenic substrate VLK-pNA (Val-Leu-Lys-p-nitroanilide) to generate p-nitroaniline (pNA), was used to measure the yellow coloration of pNA which is absorbed at 405 nm, and thereby the plasminogen activation enhancing activity of a sample is measured. An MTP-500 type microplate reader (Corona Electric Co., Ltd.) was employed as the measuring device, and measurement was performed with a 96-well round bottom microplate.
The measurement was performed under the conditions of kinetic measurement at 37° C. with dual wavelength of 405 nm (activity) to 595 nm (background), for 60 times in every minute.
The purified samples were each made into a DMSO solution or an aqueous solution of sodium salt. This solution was diluted with TBS/T (50 mM Tris-HCl, 100 mM NaCl and 0.01% Tween80, pH 7.4) to provide a sample for measurement.
Furthermore, as a blank, a reaction was performed using a reaction liquid not containing u-PA, and the value obtained therefrom was subtracted from the values obtained from the reactions described above. The absorbance was plotted against the square of time, and the slope was defined as the initial rate of reaction. A reaction solution not added with any triprenyl phenol compound was taken as the control and was compared with the samples, to determine the degree of activity of the respective compounds.
The term “concentration of 10-fold enhancing activity” indicates the concentration at which 10-fold enhancing activity is obtained in the case where the value obtained by using a reaction solution not containing any SMTP compound (control) is taken as 1. The term “maximum enhancing activity” indicates the concentration at which the enhancement of plasminogen activation by an SMTP compound reaches the maximum.

T1 sequence (P00747 20-810 limits assumed): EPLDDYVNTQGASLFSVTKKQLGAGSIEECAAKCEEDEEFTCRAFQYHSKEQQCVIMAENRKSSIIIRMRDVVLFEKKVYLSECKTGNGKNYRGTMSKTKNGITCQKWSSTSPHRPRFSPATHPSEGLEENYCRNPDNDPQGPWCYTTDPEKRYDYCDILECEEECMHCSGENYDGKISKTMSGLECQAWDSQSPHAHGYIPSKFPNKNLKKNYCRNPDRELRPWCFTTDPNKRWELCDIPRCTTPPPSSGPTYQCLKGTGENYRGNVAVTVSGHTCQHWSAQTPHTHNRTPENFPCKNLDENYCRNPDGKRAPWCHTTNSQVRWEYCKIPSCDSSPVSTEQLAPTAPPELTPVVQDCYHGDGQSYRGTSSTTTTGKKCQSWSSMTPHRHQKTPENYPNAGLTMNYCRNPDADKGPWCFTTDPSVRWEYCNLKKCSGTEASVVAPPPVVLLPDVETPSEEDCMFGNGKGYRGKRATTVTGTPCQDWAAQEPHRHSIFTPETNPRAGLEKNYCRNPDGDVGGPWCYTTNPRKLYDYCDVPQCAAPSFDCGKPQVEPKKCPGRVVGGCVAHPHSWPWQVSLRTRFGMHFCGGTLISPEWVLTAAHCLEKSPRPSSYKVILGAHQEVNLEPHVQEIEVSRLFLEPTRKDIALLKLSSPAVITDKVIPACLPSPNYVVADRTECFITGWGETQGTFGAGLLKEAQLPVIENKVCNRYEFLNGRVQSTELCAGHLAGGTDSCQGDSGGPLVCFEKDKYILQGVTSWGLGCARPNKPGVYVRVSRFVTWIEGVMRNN

CC(C)=CCC/C(C)=C/CC[C@]1(C)Oc2c(c(O)cc3c2CN(c2ccc(C(=O)O)cc2O)C3=O)C[C@@H]1O [Compound I-6]
Maximum enhancing activity: Concentration by mole: 290 µM
Maximum enhancing activity: Concentration by weight: 151 µg/mL
10-Fold enhancing activity: Concentration by mole: 131 μM
10-Fold enhancing activity: Concentration by weight: 68 μg/ml
Maximum enhancing activity: Multiplication factor: 65

CC(C)=CCC/C(C)=C/CC[C@]1(C)Oc2c(c(O)cc3c2CN([C@H](C(=O)O)c2cccc(O)c2)C3=O)C[C@@H]1O (racemic) [Compound I-25]
Maximum enhancing activity: Concentration by mole: 402 µM
Maximum enhancing activity: Concentration by weight: 215 µg/mL
10-Fold enhancing activity: Concentration by mole: 230 μM
10-Fold enhancing activity: Concentration by weight: 123 μg/ml
Maximum enhancing activity: Multiplication factor: 29

CC(C)=CCC/C(C)=C/CC[C@]1(C)Oc2c(c(O)cc3c2CN(c2cc(C(=O)O)ccc2O)C3=O)C[C@@H]1O [Compound I-10]
Maximum enhancing activity: Concentration by mole: 290 µM
Maximum enhancing activity: Concentration by weight: 151 µg/mL
10-Fold enhancing activity: Concentration by mole: 188 μM
10-Fold enhancing activity: Concentration by weight: 98 μg/ml
Maximum enhancing activity: Multiplication factor: 43

CC(C)=CCC/C(C)=C/CC[C@]1(C)Oc2c(c(O)cc3c2CN(c2cccc(C(=O)O)c2O)C3=O)C[C@@H]1O [Compound I-8]
plasminogen activation enhancing activity compared to orniplabin: equivalent or higher
Maximum enhancing activity: Concentration by mole: 100 µM
Maximum enhancing activity: Concentration by weight: 52 µg/mL
10-Fold enhancing activity: Concentration by mole: 71 μM
10-Fold enhancing activity: Concentration by weight: 37 μg/ml
Maximum enhancing activity: Multiplication factor: 91

CC(C)=CCC/C(C)=C/CC[C@]1(C)Oc2c(c(O)cc3c2CN([C@@H](Cc2ccc(O)cc2)C(=O)O)C3=O)C[C@H]1O [Compound I-26]
plasminogen activation enhancing activity compared to orniplabin: equivalent or higher
Maximum enhancing activity: Concentration by mole: 200 µM
Maximum enhancing activity: Concentration by weight: 110 µg/mL
10-Fold enhancing activity: Concentration by mole: 77 μM
10-Fold enhancing activity: Concentration by weight: 42 μg/ml
Maximum enhancing activity: Multiplication factor: 76

CC(C)=CCC/C(C)=C/CC[C@]1(C)Oc2c(c(O)cc3c2CN(c2ccccc2C(=O)O)C3=O)C[C@@H]1O [Compound I-4]
Maximum enhancing activity: Concentration by mole: 200 µM
Maximum enhancing activity: Concentration by weight: 101 µg/mL
10-Fold enhancing activity: Concentration by mole: 133 μM
10-Fold enhancing activity: Concentration by weight: 67 μg/ml
Maximum enhancing activity: Multiplication factor: 51

CC(C)=CCC/C(C)=C/CC[C@]1(C)Oc2c(c(O)cc3c2CN([C@H](C(=O)O)c2ccccc2)C3=O)C[C@@H]1O [Compound I-20]
plasminogen activation enhancing activity compared to orniplabin: equivalent or higher
Maximum enhancing activity: Concentration by mole: 289 µM
Maximum enhancing activity: Concentration by weight: 150 µg/mL
10-Fold enhancing activity: Concentration by mole: 89 μM
10-Fold enhancing activity: Concentration by weight: 46 μg/ml
Maximum enhancing activity: Multiplication factor: 402

CC(C)=CCC/C(C)=C/CC[C@]1(C)Oc2c(c(O)cc3c2CN([C@H](C(=O)O)c2ccc(O)cc2)C3=O)C[C@@H]1O [Compound I-22]
Maximum enhancing activity: Concentration by mole: 299 µM
Maximum enhancing activity: Concentration by weight: 160 µg/mL
10-Fold enhancing activity: Concentration by mole: 211 μM
10-Fold enhancing activity: Concentration by weight: 113 μg/ml
Maximum enhancing activity: Multiplication factor: 18

CC(C)=CCC/C(C)=C/CC[C@]1(C)Oc2c(c(O)cc3c2CN(c2ccc(C(=O)O)cc2)C3=O)C[C@@H]1O [Compound I-2]
plasminogen activation enhancing activity compared to orniplabin: equivalent or higher
Maximum enhancing activity: Concentration by mole: 160 µM
Maximum enhancing activity: Concentration by weight: 81 µg/mL
10-Fold enhancing activity: Concentration by mole: 83 μM
10-Fold enhancing activity: Concentration by weight: 42 μg/ml
Maximum enhancing activity: Multiplication factor: 126

CC(C)=CCC/C(C)=C/CC[C@]1(C)Oc2c(c(O)cc3c2CN(c2ccc(C(=O)O)c(O)c2)C3=O)C[C@@H]1O [Compound I-5]
plasminogen activation enhancing activity compared to orniplabin: equivalent or higher
Maximum enhancing activity: Concentration by mole: 200 µM
Maximum enhancing activity: Concentration by weight: 101 µg/mL
10-Fold enhancing activity: Concentration by mole: 100 μM
10-Fold enhancing activity: Concentration by weight: 52 μg/ml
Maximum enhancing activity: Multiplication factor: 158

CC(C)=CCC/C(C)=C/CC[C@]1(C)Oc2c(c(O)cc3c2CN(c2c(O)cccc2C(=O)O)C3=O)C[C@@H]1O [Compound I-7]
Maximum enhancing activity: Concentration by mole: 290 µM
Maximum enhancing activity: Concentration by weight: 151 µg/mL
10-Fold enhancing activity: Concentration by mole: 173 μM
10-Fold enhancing activity: Concentration by weight: 90 μg/ml
Maximum enhancing activity: Multiplication factor: 37

CC(C)=CCC/C(C)=C/CC[C@]1(C)Oc2c(c(O)cc3c2CN(c2cccc(C(=O)O)c2)C3=O)C[C@@H]1O [Compound I-3]
Maximum enhancing activity: Concentration by mole: 300 µM
Maximum enhancing activity: Concentration by weight: 151 µg/mL
10-Fold enhancing activity: Concentration by mole: 202 μM
10-Fold enhancing activity: Concentration by weight: 102 μg/ml
Maximum enhancing activity: Multiplication factor: 52

CC(C)=CCC/C(C)=C/CC[C@]1(C)Oc2c(c(O)cc3c2CN(c2ccc(O)c(C(=O)O)c2)C3=O)C[C@@H]1O [Compound I-9]
Maximum enhancing activity: Concentration by mole: 120 µM
Maximum enhancing activity: Concentration by weight: 63 µg/mL
Maximum enhancing activity: Multiplication factor: 8

CC(C)=CCC/C(C)=C/CC[C@]1(C)Oc2c(c(O)cc3c2CN(CCC[C@@H](C(=O)O)N2Cc4c(cc(O)c5c4O[C@@](C)(CC/C=C(\C)CCC=C(C)C)[C@@H](O)C5)C2=O)C3=O)C[C@@H]1O [Orniplabin, reference compound]
Maximum enhancing activity: Concentration by mole: 90 µM
Maximum enhancing activity: Concentration by weight: 78 µg/mL
10-Fold enhancing activity: Concentration by mole: 65 μM
10-Fold enhancing activity: Concentration by weight: 56 μg/ml
Maximum enhancing activity: Multiplication factor: 100

CC(C)=CCC/C(C)=C/CC[C@]1(C)Oc2c(c(O)cc3c2CN(c2ccc(S(=O)(=O)O)cc2)C3=O)C[C@@H]1O [Compound I-19]
Maximum enhancing activity: Concentration by mole: 300 µM
Maximum enhancing activity: Concentration by weight: 163 µg/mL
10-Fold enhancing activity: Concentration by mole: 137 μM
10-Fold enhancing activity: Concentration by weight: 74 μg/ml
Maximum enhancing activity: Multiplication factor: 60

CC(C)=CCC/C(C)=C/CC[C@]1(C)Oc2c(c(O)cc3c2CN([C@@H](C(=O)O)c2ccccc2)C3=O)C[C@@H]1O [Compound I-21]
Maximum enhancing activity: Concentration by mole: 289 µM
Maximum enhancing activity: Concentration by weight: 150 µg/mL
10-Fold enhancing activity: Concentration by mole: 104 μM
10-Fold enhancing activity: Concentration by weight: 54 μg/ml
Maximum enhancing activity: Multiplication factor: 44

CC(C)=CCC/C(C)=C/CC[C@]1(C)Oc2c(c(O)cc3c2CN([C@@H](C(=O)O)c2ccc(O)cc2)C3=O)C[C@@H]1O [Compound I-23]
Maximum enhancing activity: Concentration by mole: 402 µM
Maximum enhancing activity: Concentration by weight: 215 µg/mL
10-Fold enhancing activity: Concentration by mole: 331 μM
10-Fold enhancing activity: Concentration by weight: 177 μg/ml
Maximum enhancing activity: Multiplication factor: 22

CC(C)=CCC/C(C)=C/CC[C@]1(C)Oc2c(c(O)cc3c2CN(c2ccc(O)cc2C(=O)O)C3=O)C[C@@H]1O [Compound I-11]
Maximum enhancing activity: Concentration by mole: 200 µM
Maximum enhancing activity: Concentration by weight: 101 µg/mL
10-Fold enhancing activity: Concentration by mole: 127 μM
10-Fold enhancing activity: Concentration by weight: 66 μg/ml
Maximum enhancing activity: Multiplication factor: 65
